# Source: the supplement of paper PMC10307832
# Assays:
# Experiment in all cases: relative viability (nuclei count vs DMSO), 5 days (fraction); higher = more cells survive
# OSI-027 + Pictilisib = compound: COc1cccc2cc(-c3nc([C@H]4CC[C@H](C(=O)O)CC4)n4ncnc(N)c34)[nH]c12 [OSI-027] + CS(=O)(=O)N1CCN(Cc2cc3nc(-c4cccc5[nH]ncc45)nc(N4CCOCC4)c3s2)CC1 [Pictilisib] (partner 1 µM)
# How it was run: (§1)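 Dosing by pin tool came one day after lung cancer cell lines were seeded in 1536-well plates, using either one drug or a fixed anchor-drug dose plus five library-drug doses (not always all listed) in √10 steps. After 5 days, nuclei were counted on 4× images. Relative viability is treated-well nuclei count divided by vehicle-well nuclei count, and values are medians of duplicate plates.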
# Vemurafenib + Phenformin = compound: CCCS(=O)(=O)Nc1ccc(F)c(C(=O)c2c[nH]c3ncc(-c4ccc(Cl)cc4)cc23)c1F [Vemurafenib] + N=C(N)NC(=N)NCCc1ccccc1 [Phenformin] (partner 250 µM)
# How it was run: as §1
# OSI-027 + Palbociclib = compound: COc1cccc2cc(-c3nc([C@H]4CC[C@H](C(=O)O)CC4)n4ncnc(N)c34)[nH]c12 [OSI-027] + CC(=O)c1c(C)c2cnc(Nc3ccc(N4CCNCC4)cn3)nc2n(C2CCCC2)c1=O [Palbociclib] (partner 0.5 µM)
# How it was run: as §1
# Alpelisib + Pemetrexed = compound: Cc1nc(NC(=O)N2CCC[C@H]2C(N)=O)sc1-c1ccnc(C(C)(C)C(F)(F)F)c1 [Alpelisib] + Nc1nc2[nH]cc(CCc3ccc(C(=O)N[C@@H](CCC(=O)O)C(=O)O)cc3)c2c(=O)[nH]1 [Pemetrexed] (partner 0.2 µM)
# How it was run: as §1
Cell Line,relative viability (OSI-027 + Pictilisib; first compound 0.01 µM),relative viability (OSI-027 + Pictilisib; first compound 0.03162 µM),relative viability (OSI-027 + Pictilisib; first compound 0.1 µM),relative viability (OSI-027 + Pictilisib; first compound 0.3162 µM),relative viability (OSI-027 + Pictilisib; first compound 1 µM),relative viability (Vemurafenib + Phenformin; first compound 0.1 µM),relative viability (Vemurafenib + Phenformin; first compound 1 µM),relative viability (OSI-027 + Palbociclib; first compound 0.01 µM),relative viability (OSI-027 + Palbociclib; first compound 0.03162 µM),relative viability (OSI-027 + Palbociclib; first compound 0.1 µM),relative viability (OSI-027 + Palbociclib; first compound 0.3162 µM),relative viability (OSI-027 + Palbociclib; first compound 1 µM),relative viability (Alpelisib + Pemetrexed; first compound 0.04 µM),relative viability (Alpelisib + Pemetrexed; first compound 0.1265 µM),relative viability (Alpelisib + Pemetrexed; first compound 0.4 µM),relative viability (Alpelisib + Pemetrexed; first compound 1.265 µM),relative viability (Alpelisib + Pemetrexed; first compound 4 µM),relative viability (Vemurafenib + Phenformin; first compound 0.03162 µM),relative viability (Vemurafenib + Phenformin; first compound 0.3162 µM)
IA-LM,0.423,0.176,0.181,0.119,0.107,–,–,–,–,–,–,–,–,–,–,–,–,–,–
NCI-H1650,0.551,0.553,0.474,0.432,0.347,0.353,0.376,0.361,0.344,0.278,0.357,0.286,0.434,0.354,0.337,0.335,0.353,–,–
NCI-H322M,0.574,0.443,0.485,0.416,0.405,–,0.724,0.489,0.436,0.478,0.438,0.483,0.561,0.61,0.588,0.489,0.578,0.714,–
SW 1573,0.466,0.436,0.458,0.357,0.205,0.308,0.395,0.388,0.389,0.356,0.333,0.216,0.837,0.871,0.812,0.741,0.711,0.386,0.4
HCC-827,0.9,0.76,0.891,0.878,0.483,–,0.404,0.507,0.414,0.507,0.299,0.207,0.277,0.285,0.278,0.225,0.143,0.377,0.425
LU99A,0.315,0.294,0.259,0.18,0.189,0.841,0.783,0.382,0.379,0.304,0.217,0.237,0.187,0.188,0.193,0.154,0.159,0.887,0.551
LK-2,0.627,0.474,0.305,0.251,0.23,0.609,0.185,0.578,–,0.483,0.403,0.163,0.247,0.252,0.213,0.209,0.199,0.396,0.398
EMC-BAC-2,0.597,0.47,0.469,0.431,0.376,0.461,0.452,0.488,0.499,0.487,0.398,0.348,0.448,0.461,0.447,0.441,0.353,0.509,0.26
NCI-H2342,–,–,–,–,–,0.574,0.737,0.51,0.503,0.492,0.443,0.48,0.843,0.77,0.694,0.686,0.447,0.443,0.622
NCI-H460,0.274,0.416,0.295,0.314,0.211,0.52,0.52,0.18,0.186,0.186,0.158,0.092,0.0625,0.0624,0.0552,0.0558,0.033,0.495,0.316
NCI-H441,0.459,0.312,0.491,0.312,0.257,0.856,0.744,0.165,0.205,0.178,0.146,0.166,0.273,0.269,0.28,0.264,0.272,0.952,0.739
NCI-H661,0.42,0.392,0.344,0.254,0.268,0.289,0.307,0.375,0.424,0.368,0.347,0.301,0.941,1.01,0.961,0.915,0.796,0.251,0.258
NCI-H727,0.3,0.247,0.351,0.246,0.319,–,0.559,0.655,0.65,0.752,0.622,0.625,–,–,–,–,–,0.508,0.718
NCI-H1651,0.538,–,0.504,0.464,0.282,0.295,0.311,0.534,0.502,0.497,0.459,0.393,0.543,0.525,0.594,0.541,0.538,0.318,0.325
NCI-H1355,0.436,0.399,0.326,0.271,0.208,0.426,0.487,0.4,0.392,0.317,0.264,0.257,1.03,1.03,1.01,0.934,0.926,0.424,0.36
NCI-H1793,0.421,0.329,0.276,0.222,0.179,–,0.338,0.3,0.3,0.236,0.187,0.181,0.879,0.855,0.977,0.614,0.596,0.338,0.333
NCI-H1666,0.365,0.369,0.537,0.27,0.257,0.594,0.604,0.691,0.675,0.65,0.577,0.671,0.882,0.893,0.979,0.833,0.514,0.549,0.63
NCI-H838,0.409,0.434,0.294,0.241,0.297,0.581,0.672,0.203,0.195,0.191,0.165,0.168,0.257,0.238,0.244,0.229,0.199,0.506,–
NCI-H1975,0.279,0.236,0.312,0.178,0.218,0.406,0.466,0.601,0.578,0.549,0.598,0.359,0.298,0.293,0.294,0.285,0.279,0.422,0.289
A-427,0.61,0.664,0.699,0.495,0.378,0.313,0.365,0.538,0.516,0.453,0.414,0.386,0.89,0.87,0.988,0.885,0.845,0.317,0.267
SK-LU-1,0.529,0.462,0.355,0.272,0.287,0.555,0.521,0.373,0.381,0.394,0.302,0.268,1.04,0.987,0.938,0.909,0.955,0.428,0.384

Cell Line,relative viability (OSI-027 + Pictilisib; first compound 0.01 µM),relative viability (OSI-027 + Pictilisib; first compound 0.03162 µM),relative viability (OSI-027 + Pictilisib; first compound 0.1 µM),relative viability (OSI-027 + Pictilisib; first compound 0.3162 µM),relative viability (OSI-027 + Pictilisib; first compound 1 µM),relative viability (Vemurafenib + Phenformin; first compound 0.1 µM),relative viability (Vemurafenib + Phenformin; first compound 1 µM),relative viability (OSI-027 + Palbociclib; first compound 0.01 µM),relative viability (OSI-027 + Palbociclib; first compound 0.03162 µM),relative viability (OSI-027 + Palbociclib; first compound 0.1 µM),relative viability (OSI-027 + Palbociclib; first compound 0.3162 µM),relative viability (OSI-027 + Palbociclib; first compound 1 µM),relative viability (Alpelisib + Pemetrexed; first compound 0.04 µM),relative viability (Alpelisib + Pemetrexed; first compound 0.1265 µM),relative viability (Alpelisib + Pemetrexed; first compound 0.4 µM),relative viability (Alpelisib + Pemetrexed; first compound 1.265 µM),relative viability (Alpelisib + Pemetrexed; first compound 4 µM),relative viability (Vemurafenib + Phenformin; first compound 0.03162 µM),relative viability (Vemurafenib + Phenformin; first compound 0.3162 µM)
PC-3 [JPC-3],0.68,0.675,0.697,0.62,0.521,–,0.513,0.535,0.522,0.563,0.5,0.439,1.23,0.559,1.12,0.969,0.801,0.482,0.498
ChaGo-K-1,0.665,1.02,0.356,0.492,0.381,0.545,0.481,0.946,0.942,0.904,0.87,0.774,0.265,0.257,0.263,0.263,0.251,0.472,0.352
NCI-H2023,0.23,0.229,0.181,0.155,0.0973,0.381,0.354,0.36,0.326,0.249,0.22,0.161,0.214,0.221,0.219,0.181,0.185,0.376,0.378
LXF-289,0.778,0.714,0.752,0.511,0.46,0.457,0.551,0.605,0.677,0.66,0.599,0.345,0.899,0.866,0.999,0.904,0.949,0.456,0.435
EBC-1,0.344,0.359,0.299,0.216,0.238,–,–,–,–,–,–,–,–,–,–,–,–,–,–
LOU-NH91,0.544,0.555,0.489,0.472,0.447,–,0.731,0.556,0.563,0.503,0.567,0.529,0.398,0.385,0.486,0.407,0.404,0.644,–
PC-14,0.526,0.719,0.722,0.544,0.171,–,0.652,0.512,0.509,0.545,0.576,0.408,0.157,0.145,0.134,0.137,0.138,0.456,0.218
Calu-6,0.94,0.762,0.655,0.544,0.319,–,–,–,–,–,–,–,–,–,–,–,–,–,–
H3255,0.466,0.471,0.441,0.379,0.24,–,0.332,0.294,0.309,0.303,0.271,0.321,0.586,0.614,0.603,0.526,0.507,0.3,0.342
SW 900,–,–,–,–,–,0.454,0.614,0.531,0.579,0.577,0.375,0.288,0.513,–,0.476,0.497,0.405,0.532,0.476
NCI-H650,0.882,0.745,0.702,0.452,0.345,0.443,0.37,0.333,0.35,0.302,0.29,0.205,0.909,0.923,0.879,0.794,0.757,0.437,–
NCI-H1563,0.619,0.625,0.604,0.631,0.673,0.705,0.672,–,–,–,–,–,0.857,0.579,0.662,0.622,0.567,0.632,0.66
NCI-H522,–,–,–,–,–,0.536,0.622,0.995,0.938,1.04,0.79,0.535,1.07,1.03,1.1,0.946,0.72,0.651,0.547
NCI-H1623,–,–,–,–,–,–,0.569,–,–,–,–,–,–,–,–,–,–,0.565,0.623
ABC-1,0.627,0.653,0.632,0.445,0.319,0.297,0.246,0.828,0.531,0.476,0.444,0.553,–,–,–,–,–,0.241,0.276
NCI-H1648,–,–,–,–,–,–,–,0.37,0.267,–,0.222,0.266,0.661,0.743,0.894,0.559,0.482,–,–
NCI-H1299,0.787,0.627,0.548,0.338,0.242,–,–,–,–,–,–,–,–,–,–,–,–,–,–
NCI-H1703,0.318,0.242,0.244,0.231,0.201,–,–,–,–,–,–,–,–,–,–,–,–,–,–
NCI-H596,0.41,0.435,0.361,0.317,0.311,0.748,0.56,–,–,–,–,–,0.44,0.446,0.503,0.41,0.42,0.871,0.725
A549,0.53,–,0.276,0.14,0.142,0.154,0.146,–,–,–,–,–,–,–,–,–,–,0.163,–
